Here are results for 3 compounds from publication PMC11587510, “Aromatic Amino Acid Hydroxylases as Off-Targets of Histone Deacetylase Inhibitors” (ACS Chemical Neuroscience, 2024).

Several values for one entry are separate records, joined by “and”; a condition that tells them apart may be missing. Identical values can stand only once. Like-named read-outs stand apart in the source and are kept apart here.

In one assay the target is T1, endogenous PAH (Homo sapiens, UniProt P00439).
T1 construct: increased melting temperatures (ΔTm) of endogenous PAH; endogenous in cells; host or cells: HepG2
T1 sequence (P00439 1-452): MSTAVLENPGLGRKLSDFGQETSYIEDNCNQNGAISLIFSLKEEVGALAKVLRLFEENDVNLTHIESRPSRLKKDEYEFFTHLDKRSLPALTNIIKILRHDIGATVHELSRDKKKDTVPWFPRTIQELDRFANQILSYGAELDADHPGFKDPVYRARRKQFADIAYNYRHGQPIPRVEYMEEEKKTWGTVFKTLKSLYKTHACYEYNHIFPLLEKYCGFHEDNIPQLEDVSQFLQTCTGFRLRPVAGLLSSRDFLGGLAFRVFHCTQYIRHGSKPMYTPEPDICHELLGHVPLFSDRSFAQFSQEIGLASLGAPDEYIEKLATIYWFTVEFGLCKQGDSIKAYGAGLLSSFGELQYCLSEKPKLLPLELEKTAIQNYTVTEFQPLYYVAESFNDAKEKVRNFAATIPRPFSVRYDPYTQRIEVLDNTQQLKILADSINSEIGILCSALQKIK
As to the kind of experiment: Cellular thermal shift assay (CETSA) in HepG2 cells. The format is cell-based. The settings on record: 50 μM compound, 1 h, vs DMSO. Here is the method:
Then, cells were washed, harvested using trypsin, and pelleted by centrifugation. The pellet was washed twice with PBS supplemented with complete EDTA-free protease inhibitor cocktail (Roche) and divided into 14 aliquots of 35 μL containing 800,000 cells. Cells were then frozen in liquid nitrogen and thawed at 25 °C three times, and each aliquot was heated to a defined temperature by applying a gradient between 39 °C and 69 °C in a thermocycler (peQSTAR, PeQlab; 16-well gradient, 54 °C ± 15 °C). After 3 min incubation, aliquots were snap frozen in liquid nitrogen and thawed at 25 °C. Cell lysates were centrifuged at 20,000 g (4 °C) for 20 min. Supernatants were mixed with 5x loading buffer, heated to 70 °C for 5 min and analyzed by Western blotting. Chemoluminescence signals were recorded with a FusionSL, Vilber Lourmat (peQlab) and quantified using FusionCapt Advance FX7 16.01c software. Calculation of ΔTm was conducted using the Boltzmann sigmoidal model in GraphPad prism 7.01.
Cell lysates used for Western blot analysis were prepared as described in the Methods section (Cellular Thermal Shift Assay). […] Chemoluminescence signals were recorded with an FusionSL, Vilber Lourmat (peQlab) and quantified using FusionCapt Advance FX7 16.01c software.

The target of a further assay is T2, TPH1 (Homo sapiens, UniProt P17752).
T2 construct: doubly truncated human TPH1 (ΔNH102-ΔCOOH402); made in house; host or cells: E. coli BL21(DE3)
T2 sequence (P17752 102-402): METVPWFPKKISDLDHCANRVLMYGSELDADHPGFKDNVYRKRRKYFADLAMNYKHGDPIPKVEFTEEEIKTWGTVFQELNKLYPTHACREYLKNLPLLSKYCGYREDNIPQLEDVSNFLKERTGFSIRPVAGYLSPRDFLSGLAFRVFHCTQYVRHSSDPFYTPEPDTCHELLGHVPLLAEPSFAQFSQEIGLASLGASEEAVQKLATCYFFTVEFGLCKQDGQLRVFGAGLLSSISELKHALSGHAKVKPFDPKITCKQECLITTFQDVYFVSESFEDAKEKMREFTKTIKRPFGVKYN
As to the kind of experiment: Differential scanning fluorimetry (DSF) thermal stability assay. The format is binding. Conditions: DSF, 50 μM compound. Here is the method: A fluorescence-based thermal stability assay (differential scanning fluorimetry, DSF) was used for testing the effects of HDIs on the thermal stability of TPH1.
For initial high throughput screening (HTS), compounds were prepared at a concentration of 10 mM (in some cases, 5 mM) in 100% DMSO. Initial HTS screening was performed on TPH1 with and without compounds using a LightCycler 480 Real-Time PCR System (Roche Applied Science). TPH1 was diluted to 0.075 mg/mL in 50 mM Tris pH 8.0, 200 mM NaCl, 0.5 mM TCEP, and 5% glycerol with 5x SYPRO Orange. Compounds were added to a final concentration of 50 μM. Controls with 0.5% DMSO were performed on each 384-well microplate. Unfolding curves were recorded from 20 to 95 °C at a scan rate of 2 °C/min and monitored at excitation = 465 nm and emission = 610 nm. Selected hits were validated further by serial dilution from 250 μM to 122 nM, keeping the DMSO concentration constant at 2%.
DSF data were analyzed using HTSDSF Explorer.[55] Melting temperature (Tm) was calculated from the maximum value of the first derivative of the unfolding curve. ΔTm (Tm with compound–averaged Tm in DMSO controls) was plotted for all validated curves and a threshold of 2 °C was set (typically, cutoff at ΔTm = 3-fold the SD of the Tm of the DMSO control).
Preliminary binding constants (KD) were calculated by fitting data to the equation [drawing 1] where ΔH0 is the enthalpy of the unfolding of the protein in the presence of ligand ([L]), and R is the gas constant.
For orientation: DSF heats the sample and reads unfolding from a dye or from intrinsic fluorescence.

For a further assay, the target named is T3, human PAH (Homo sapiens, UniProt P00439).
T3 construct: Full-length human TH isoform 1 (TH1), human PAH, human TPH2, and doubly truncated human TPH1; made in house; host or cells: E. coli TB1
T3 sequence (P00439 1-452): T1 sequence (P00439 1-452)
In words: PAH enzyme activity assay (HPLC, L-Tyr). The format is biochemical.

A further assay has as its system HDAC 1. Conditions: human recombinant HDAC, cited from earlier work.
The target of the next assay is T4, human TH isoform 1 (TH1) (Homo sapiens, UniProt P07101).
T4 construct: Full-length human TH isoform 1 (TH1); His6-ZZ fusion partner (one of the two preparations only) (cleaved yes); made in house; host or cells: E. coli BL21(DE3) pLysS (pET3a) or BL21 CodonPlus (pET-ZZ-1a)
T4 sequence (P07101 1-497 isoform P07101-3): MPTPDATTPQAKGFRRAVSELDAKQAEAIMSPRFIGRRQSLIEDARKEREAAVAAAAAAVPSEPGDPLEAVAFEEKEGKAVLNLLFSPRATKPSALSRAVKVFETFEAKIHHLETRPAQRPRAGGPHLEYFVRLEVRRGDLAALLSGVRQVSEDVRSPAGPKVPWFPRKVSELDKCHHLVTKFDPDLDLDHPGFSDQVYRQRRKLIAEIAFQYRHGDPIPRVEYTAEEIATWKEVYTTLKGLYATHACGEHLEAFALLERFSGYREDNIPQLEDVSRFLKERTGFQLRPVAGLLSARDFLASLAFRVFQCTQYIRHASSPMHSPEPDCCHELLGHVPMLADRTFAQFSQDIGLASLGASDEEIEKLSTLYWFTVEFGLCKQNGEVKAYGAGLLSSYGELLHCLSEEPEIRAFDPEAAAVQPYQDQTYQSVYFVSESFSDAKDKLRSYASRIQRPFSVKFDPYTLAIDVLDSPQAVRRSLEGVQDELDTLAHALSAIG
In words: TH enzyme activity assay (HPLC, L-DOPA). The format is biochemical. The settings on record: best-fit IC50 (± SE), nonlinear regression; N.A. = no activity. The protocol: (§1) The activity of purified PAH, TH, TPH1, and TPH2 was measured using high-performance liquid chromatography (HPLC) as previously described.[50],[56],[57]
TH activities were performed in a standard reaction mixture containing 40 mM Hepes (pH 7.0), 0.1 mg/mL catalase, 10 μM ferrous ammonium sulfate, and 50 μM L-Tyr. Compounds were incubated with TH (0.01 mg/mL) in the reaction mixture for 10 min on ice. The enzymatic reaction was initiated by adding 200 μM BH4 and 2 mM DTT (final concentrations) and stopped by precipitation with 2% (v/v) acetic acid in ethanol after 5 min at 37 °C. The product, L-DOPA, was quantified by HPLC utilizing a fluorescence monitor set at 281 and 314 nm for excitation and emission, respectively.
GraphPad Prism (version 10; La Jolla, CA) was used for analyzing the enzyme inhibition data.

A further assay has as its system HDAC 8. Conditions: human recombinant HDAC, cited from earlier work.
In assay [1] the target is T5, doubly truncated human TPH1 (ΔNH102-ΔCOOH402) (Homo sapiens, UniProt P17752).
T5 construct: doubly truncated human TPH1 (ΔNH102-ΔCOOH402); made in house; host or cells: E. coli BL21(DE3)
T5 sequence (P17752 102-402, stated change not applied): as the sequence (P17752 102-402) above
As to the kind of experiment: TPH1 enzyme activity assay (HPLC, 5-OH-Trp). Format: biochemical. Conditions: best-fit IC50 (± SE), nonlinear regression; N.A. = no activity.

A further assay deals with HDAC 6. The settings on record: human recombinant HDAC; ref 6 (10.1002/cmdc.201800238); cited from earlier work.
The next assay deals with T6, human TPH2 (Homo sapiens, UniProt Q8IWU9).
T6 construct: Full-length human TH isoform 1 (TH1), human PAH, human TPH2, and doubly truncated human TPH1; MBP (cleaved yes); made in house; host or cells: E. coli BL21(DE3)
T6 sequence (Q8IWU9 1-490): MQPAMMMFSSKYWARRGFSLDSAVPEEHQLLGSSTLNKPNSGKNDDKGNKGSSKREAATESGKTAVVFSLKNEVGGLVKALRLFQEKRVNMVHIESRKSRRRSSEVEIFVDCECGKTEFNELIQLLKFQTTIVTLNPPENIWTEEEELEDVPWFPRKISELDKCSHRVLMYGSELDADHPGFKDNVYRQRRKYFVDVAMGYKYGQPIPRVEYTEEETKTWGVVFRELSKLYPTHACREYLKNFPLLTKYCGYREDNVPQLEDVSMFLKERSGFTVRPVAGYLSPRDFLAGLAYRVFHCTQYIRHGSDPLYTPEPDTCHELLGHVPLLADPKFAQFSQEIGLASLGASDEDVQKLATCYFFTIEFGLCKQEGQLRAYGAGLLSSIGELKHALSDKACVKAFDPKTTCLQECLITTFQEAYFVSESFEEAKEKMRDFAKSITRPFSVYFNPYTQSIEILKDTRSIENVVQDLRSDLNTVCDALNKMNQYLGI
In words: TPH2 enzyme activity assay (HPLC). The format is biochemical. The settings on record: best-fit IC50 (± SE), nonlinear regression; N.A. = no activity.

A further assay relates to serotonin transporter. Further details: method as in PMID 21785940. The settings on record: neuroblastoma cells; cited from earlier work.
Another assay relates to dopamine transporter. Further details: method as in PMID 21785940. Conditions: neuroblastoma cells; cited from earlier work.
Assay [2] relates to AAAHs (PAH, TH, TPH1, TPH2). As to the kind of experiment: Enzyme activity assays, statement over all four AAAHs. The format is biochemical, human. Here is the method: as §1
TPH1 enzymatic activity assays were performed with the selected hits from the DSF screening in the presence and absence of 50 μM of each compound. The final concentration of DMSO was 0.5% (v/v), and control experiments used 0.5% DMSO in the absence of ligand. Assays were performed in a standard reaction mixture containing 40 mM Hepes pH 7.0, 200 mM NaCl, 0.1 mg/mL catalase, 0.5 mg/mL BSA, 10 μM ferrous ammonium sulfate, and 30 μM L-tryptophan (L-Trp). Compounds were incubated with TPH1 (0.02 mg/mL) in the reaction mixture for 10 min on ice. The enzymatic reaction was initiated by adding 200 μM BH4 and 2 mM DTT (final concentrations) and stopped by precipitation with 2% (v/v) acetic acid in ethanol after 3 min at 37 °C. The product, 5-hydroxy-tryptophan (5-OH-Trp), was quantified by HPLC utilizing a fluorescence monitor set at 302 and 350 nm for excitation and emission, respectively. […]. […]
PAH activities were performed in a standard reaction mixture containing 100 mM Hepes (pH 7.0), 0.04 mg/mL catalase, 0.05% BSA, 10 μM ferrous ammonium sulfate, and 1 mM phenylalanine (Phe). […] The product, L-Tyrosine (L-Tyr), was quantified by HPLC utilizing a fluorescence monitor set at 274 and 304 nm for excitation and emission, respectively. […]

A word on the IC50: it is the point on the concentration scale where inhibition reaches its midpoint. As to `O=C(/C=C/c1ccccc1Oc1ccc(Cl)cc1)NO` [TB57, (2E)-3-[2-(4-Chlorophenoxy)phenyl]-N-hydroxy-2-propenamide], at endogenous PAH, the “ΔTm of endogenous PAH (CETSA)” value was determined as 4.8 °C. For the same compound, the “ΔTm (°C) ± SD (°C), primary screen” value on TPH1 (vs averaged Tm of 0.5% DMSO controls) is -3.4 ± 0.1 °C. The IC50 on human PAH (best-fit IC50 (± SE), nonlinear regression, N.A. = no activity, read-out: IC50 (μM) PAH) was 1.55 µM and 1.6 µM; with HDAC 1 (ref 6 (10.1002/cmdc.201800238)), 13.4 ± 2.4 µM; with HDAC 8 (ref 6 (10.1002/cmdc.201800238)), 0.15 ± 0.03 µM; in assay [1] it was 49.6 µM; in the assay with HDAC 6, 11.4 ± 2.5 µM; against human TPH2, 195 µM. On human PAH (from IC50 values of Table 2), the “selectivity toward PAH in comparison to TPH1” value is 30 fold. Moreover, the “selectivity toward PAH in comparison to TPH2” value on human PAH (from IC50 values of Table 2) turned out to be 125 fold. At human TH isoform 1 (TH1), the “IC50 (μM) TH” value is on record as “no inhibition”.

With `CC(/C=C/C(=O)NO)=C\[C@@H](C)C(=O)c1ccc(N(C)C)cc1` [trichostatin A], in the assay on serotonin transporter, the “increase of serotonin transporter expression” value is recorded as 15 fold. Besides, the “increase of dopamine transporter expression” value in the assay with dopamine transporter was 45 fold.

For orientation: ΔTm means the shift of the melting midpoint relative to a reference. As to `Nc1ccccc1NC(=O)c1ccc(CNc2nccc(-c3cccnc3)n2)cc1` [mocetinostat, reference compound], the “Tm (°C) ± SD (°C), primary screen” value on TPH1 (0.075 mg/mL TPH1, 0.5% DMSO, three independent measurements (a: duplicates)) came to 54.5 ± 0.2 °C. For the same compound, at TPH1 (vs averaged Tm of 0.5% DMSO controls, read-out: ΔTm (°C) ± SD (°C), primary screen), the ΔTm at 50 µM was -0.8 °C. The values for the IC50 in the assay on HDAC 1 (ref 2 (PMID: 23829483)) and with HDAC 8 (ref 2 (PMID: 23829483)) were 0.098 ± 0.055 µM and 35 ± 4.4 µM, respectively. In addition, in assay [2], the “inhibitory activity against all the AAAHs” value was “completely inactive”.
